Data reported in patent publication US20210292843A1, “TREATMENT OF DISEASES ASSOCIATED WITH ACTIVATED IRAK” (CHILDREN'S HOSPITAL MEDICAL CENTER, priority 2016, published 2021).

What was measured:
Type in all cases: cell-based, human
K562 S34F-U2AF1 cells [1] = assay: Clonogenic progenitor assay in methylcellulose; conditions: 10 uM inhibitor, colonies counted after 7 days, S34F-U2AF1 compared to WT-U2AF1 cells (FIG. 13C)
From the text: (§1) Doxycycline-inducible FLAG-tagged WT U2AF1 or FLAG-tagged mutant U2AF1(S34F) lentiviral expression plasmids have been previously described, and lentivirus was generated in 293T cells with the packaging plasmids pMD-G, pMD-Lg and REV. Concentrated virus (multiplicity of infection (MOI) of 3 for K562, MOI of 5 for OCI-AML3) was used to transduce K562 cells (ATCC, CCL243) or OCI-AML3 (DSMZ, ACC 582). Transduced cells (marked by green fluorescent protein) were isolated by flow cytometry cell sorting. Expression of mutant or WT U2AF1 was induced using the indicated concentrations of doxycycline hyclate (Sigma) in water. (Shirai C, et al., 2017)
Clonogenic progenitor frequencies were determined by plating 1×10^3 K562 cells/ml in methylcellulose (Methocult H4236; Stem Cell Technologies). Colonies were scored after 7 days.
(§2) It was then investigated in whether or not there was a therapeutic opportunity in a subset of patients with increased IRAK4-Long expression, since expression of IRAK4-Long is associated with poor AML patient outcome (as described in Example 4, above). […] K562 WT- and S34F-U2AF1 were treated with DMSO or 10 uM IRAK1/4 inhibitor for 7 days, and cell viability was monitored by trypan blue exclusion. […]
(§3) Viability was measured by Trypan Blue staining. […] Colonies were counted after 7 days.

[2] = test system: phospho-IRAK1, phospho-pIKK, and phospho-p65; assay: Immunoblotting of innate immune signaling after IRAK1/4 inhibitor treatment; conditions: S34F-U2AF1 K562 cells; IRAK1/4 inhibitor for 1 hour and 2 hours; immunoblot (FIG. 13A)
Method: Total protein lysates were obtained from cells by lysing the samples in cold RIPA buffer (50 mM Tris-HCl, 150 mM NaCl, 1 mM EDTA, 1% Triton X-100 and 0.1% SDS), in the presence of PMSF, sodium orthovanadate, protease and phosphatase inhibitors. Protein concentration was evaluated by a BCA assay (32106, Pierce, Rockford, Ill.). The bound proteins were separated by SDS-polyacrylamide gel electrophoresis, transferred to nitrocellulose membranes, and analyzed by immunoblotting. Western blot analysis was performed with the following antibodies: IRAK4 C-term (ab5985; Abcam, Cambridge, UK), IRAK N-term (4363; Cell Signaling Technology), GAPDH (5174; Cell Signaling Technology), Flag (F3165; Sigma, St. Louis, Mo.), IRAK1 (sc-7883; Santa Cruz, Dallas, Tex.), phospho-IRAK1 (T209) (A1074; AssaybioTech, Sunnyvale, Calif.), U2AF1 (ab86305; Abeam), IKKβ (2370; Cell Signaling Technology), phospho-IKKα/β (2697; Cell Signaling Technology), p38 MAPK (9212; Cell Signaling Technology), phopho-p38 MAPK (4631; Cell Signaling Technology), ERK (4695; Cell Signaling Technology), phospho-ERK (4377; Cell Signaling Technology), p65 (8242; Cell Signaling Technology) and phospho-p65 (3033; Cell Signaling Technology).
Doxycycline-inducible FLAG-tagged WT U2AF1 or FLAG-tagged mutant U2AF1(S34F) lentiviral expression plasmids have been previously described, and lentivirus was generated in 293T cells with the packaging plasmids pMD-G, pMD-Lg and REV. Concentrated virus (multiplicity of infection (MOI) of 3 for K562, MOI of 5 for OCI-AML3) was used to transduce K562 cells (ATCC, CCL243) or OCI-AML3 (DSMZ, ACC 582). […]
as §2, §3

K562 WT-U2AF1 cells = assay: Growth curve, cell viability by trypan blue exclusion; conditions: 10 uM inhibitor vs DMSO, 7 days, WT-U2AF1 cells (FIG. 13B)
From the text: as §1
(§4) Trypan blue exclusion was measured using an automated cell counter (BioRad, Hercules, Calif., TC10). Cells were replenished with fresh media, doxycycline and drug every fifth day.
as §2, §3

K562 S34F-U2AF1 cells [3] = assay: as above; conditions: 10 uM inhibitor vs DMSO, S34F-U2AF1 cells (FIG. 13B)
From the text: as §1, §4, §2, §3

O=C(Nc1nc2ccccc2n1CCN1CCOCC1)c1cccc([N+](=O)[O-])c1 [IRAK1/4 inhibitor] was tested, and the “colonies in methylcellulose (leukemic progenitor function)” value (K562 S34F-U2AF1 cells [1]) was “significantly fewer colonies”, the phospho-IRAK1 level [2] was “returned to normal” and the phospho-p65 level [2] was “returned to normal”. For the same compound, the phospho-pIKK level [2] was “returned to normal”, the “decrease in proliferation and viability” value (K562 WT-U2AF1 cells) was “not seen” and the “cell viability / survival over 7 days” value (K562 S34F-U2AF1 cells [3]) was “significantly reduced survival”.
